ChEMBL document CHEMBL1743341, “Cytochrome p450 enzymes mechanism based inhibitors: common sub-structures and reactivity” (Curr Drug Metab, 2005)
Each block holds one compound with its values, some of them ahead of it.

Assays:
[1] = target: Cytochrome P450 2A13 (Homo sapiens, UniProt Q16696); assay: Mechanism based inhibition of human cytochrome P450 2A13 measured by coumarin 7-hydroxylation and testosterone 15-hydroxylation; assay type: ADME
[2] = target: T1, Cytochrome P450 3A4 (Homo sapiens, UniProt P08684); assay: Mechanism based inhibition of human cytochrome P450 3A4 measured in vivo; assay type: ADME, organism-based
T1 sequence (P08684 whole entry): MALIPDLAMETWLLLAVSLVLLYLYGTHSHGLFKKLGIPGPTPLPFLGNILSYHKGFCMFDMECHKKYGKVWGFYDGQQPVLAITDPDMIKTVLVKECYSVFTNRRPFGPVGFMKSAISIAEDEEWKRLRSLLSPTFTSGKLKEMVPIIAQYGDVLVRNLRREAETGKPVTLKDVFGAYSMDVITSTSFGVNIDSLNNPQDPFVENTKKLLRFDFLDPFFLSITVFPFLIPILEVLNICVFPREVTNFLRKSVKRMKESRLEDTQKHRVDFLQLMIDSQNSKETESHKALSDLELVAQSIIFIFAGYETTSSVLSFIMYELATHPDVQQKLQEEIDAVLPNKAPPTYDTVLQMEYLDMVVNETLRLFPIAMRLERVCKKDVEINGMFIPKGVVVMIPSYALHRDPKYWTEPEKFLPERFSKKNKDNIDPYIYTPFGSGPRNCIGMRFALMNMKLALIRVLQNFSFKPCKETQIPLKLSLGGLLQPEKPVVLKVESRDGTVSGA

[3] = target: T1, Cytochrome P450 3A4; assay: Mechanism based inhibition of human cytochrome P450 3A4 measured by lovastatin 6'-beta hydroxylase activity; assay type: ADME
[4] = target: T2, Cytochrome P450 2B1 (Rattus norvegicus, UniProt P00176); assay: Mechanism based inhibition of rat cytochrome P450 CYP2B1 measured by androstenedione 16-beta-hydroxylation and R- and S- warfarin hydroxylation; assay type: ADME
T2 sequence (P00176 whole entry): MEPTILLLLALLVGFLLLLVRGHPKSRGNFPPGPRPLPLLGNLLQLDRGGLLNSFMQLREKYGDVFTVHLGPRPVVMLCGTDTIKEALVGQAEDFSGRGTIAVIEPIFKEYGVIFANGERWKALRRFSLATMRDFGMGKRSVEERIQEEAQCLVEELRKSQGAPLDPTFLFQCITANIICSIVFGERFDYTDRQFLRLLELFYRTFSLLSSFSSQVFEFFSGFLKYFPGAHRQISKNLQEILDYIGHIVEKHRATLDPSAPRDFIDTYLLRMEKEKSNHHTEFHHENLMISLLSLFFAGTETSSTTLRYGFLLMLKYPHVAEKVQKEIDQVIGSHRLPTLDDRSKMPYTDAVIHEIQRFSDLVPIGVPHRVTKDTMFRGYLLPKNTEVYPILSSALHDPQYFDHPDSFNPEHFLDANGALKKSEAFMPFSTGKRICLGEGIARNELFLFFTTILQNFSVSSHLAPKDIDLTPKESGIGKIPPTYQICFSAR

[5] = target: T3, CYP1A2 (Homo sapiens, UniProt P05177); assay: Mechanism based inhibition of human cytochrome P450 1A2; assay type: ADME
T3 sequence (P05177 whole entry): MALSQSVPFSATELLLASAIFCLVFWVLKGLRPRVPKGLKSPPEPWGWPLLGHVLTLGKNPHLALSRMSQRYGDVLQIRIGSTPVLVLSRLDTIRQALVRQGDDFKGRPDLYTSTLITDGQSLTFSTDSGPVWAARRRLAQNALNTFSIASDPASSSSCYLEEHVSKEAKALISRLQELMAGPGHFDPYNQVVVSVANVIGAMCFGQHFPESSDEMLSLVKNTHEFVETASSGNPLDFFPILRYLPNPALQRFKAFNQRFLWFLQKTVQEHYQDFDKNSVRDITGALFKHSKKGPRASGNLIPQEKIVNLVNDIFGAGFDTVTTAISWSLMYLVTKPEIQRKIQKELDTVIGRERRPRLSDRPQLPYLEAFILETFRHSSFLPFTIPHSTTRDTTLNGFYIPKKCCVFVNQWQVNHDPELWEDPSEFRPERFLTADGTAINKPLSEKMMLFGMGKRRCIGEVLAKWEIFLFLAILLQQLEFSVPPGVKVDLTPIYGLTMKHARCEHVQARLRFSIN

[6] = target: T4, Cytochrome P450 2B4 (Oryctolagus cuniculus, UniProt P00178); assay: (§1) Mechanism based inhibition of rabbit cytochrome P450 CYP2B4 measured by 7-EFC O-deethylation activity; assay type: ADME
T4 sequence (P00178 whole entry): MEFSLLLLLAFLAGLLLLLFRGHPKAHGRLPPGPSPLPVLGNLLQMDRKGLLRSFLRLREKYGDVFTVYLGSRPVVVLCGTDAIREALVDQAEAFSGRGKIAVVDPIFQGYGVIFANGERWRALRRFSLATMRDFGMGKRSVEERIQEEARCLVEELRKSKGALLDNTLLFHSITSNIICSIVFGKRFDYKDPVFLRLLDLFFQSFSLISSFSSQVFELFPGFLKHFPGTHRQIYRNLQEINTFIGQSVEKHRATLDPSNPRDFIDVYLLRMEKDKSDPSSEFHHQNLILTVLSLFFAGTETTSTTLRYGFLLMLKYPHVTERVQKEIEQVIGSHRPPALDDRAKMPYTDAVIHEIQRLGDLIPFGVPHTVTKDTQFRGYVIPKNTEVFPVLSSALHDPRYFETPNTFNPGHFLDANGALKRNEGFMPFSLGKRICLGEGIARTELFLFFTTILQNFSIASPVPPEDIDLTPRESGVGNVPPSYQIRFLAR

[7] = target: T5, CYP2B4 (Oryctolagus cuniculus, UniProt P00178); assay: as §1; assay type: ADME; conditions: rabbit, probe 7-EFC (O-deethylation)
T5 sequence (P00178 whole entry): T4 sequence (P00178 whole entry)

[8] = target: Cytochrome P450 2E1 (Oryctolagus cuniculus) (UniProt P08682); assay: Mechanism based inhibition of rabbit cytochrome P450 CYP2E1 measured by 7-EFC O-deethylation activity; conditions: probe 7-EFC (O-deethylation)
Sequence of Cytochrome P450 2E1 (Oryctolagus cuniculus) (P08682 whole entry, looked up): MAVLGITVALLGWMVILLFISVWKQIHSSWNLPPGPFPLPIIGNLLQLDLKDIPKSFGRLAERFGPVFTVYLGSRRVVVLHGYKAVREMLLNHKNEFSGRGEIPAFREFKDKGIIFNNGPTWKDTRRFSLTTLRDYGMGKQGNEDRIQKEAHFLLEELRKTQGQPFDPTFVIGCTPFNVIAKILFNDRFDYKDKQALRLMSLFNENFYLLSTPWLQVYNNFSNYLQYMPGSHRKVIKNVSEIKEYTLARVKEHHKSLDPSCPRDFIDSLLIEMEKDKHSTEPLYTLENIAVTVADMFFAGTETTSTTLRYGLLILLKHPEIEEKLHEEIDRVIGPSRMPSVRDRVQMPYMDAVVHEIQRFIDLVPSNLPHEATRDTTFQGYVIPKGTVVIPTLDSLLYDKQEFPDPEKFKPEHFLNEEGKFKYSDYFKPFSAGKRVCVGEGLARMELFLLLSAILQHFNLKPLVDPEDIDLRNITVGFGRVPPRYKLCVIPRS

[9] = target: T6, Cytochrome P450 2E1 (Homo sapiens, UniProt P05181); assay: (§2) Mechanism based inhibition of human cytochrome P450 2E1; assay type: ADME
T6 sequence (P05181 whole entry): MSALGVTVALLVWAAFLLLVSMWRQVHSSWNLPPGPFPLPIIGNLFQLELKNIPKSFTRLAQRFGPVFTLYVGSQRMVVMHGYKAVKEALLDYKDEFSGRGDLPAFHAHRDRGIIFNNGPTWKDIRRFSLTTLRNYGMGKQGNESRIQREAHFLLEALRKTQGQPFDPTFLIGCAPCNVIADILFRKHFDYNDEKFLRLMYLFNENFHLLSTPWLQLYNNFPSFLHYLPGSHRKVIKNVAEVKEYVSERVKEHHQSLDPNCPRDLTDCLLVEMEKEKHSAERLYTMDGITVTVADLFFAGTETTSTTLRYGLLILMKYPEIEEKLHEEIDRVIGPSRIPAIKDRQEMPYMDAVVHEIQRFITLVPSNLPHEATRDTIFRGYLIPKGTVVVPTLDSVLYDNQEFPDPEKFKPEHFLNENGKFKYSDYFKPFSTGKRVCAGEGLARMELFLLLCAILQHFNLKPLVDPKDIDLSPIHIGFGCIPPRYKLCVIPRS

[10] = target: T6, Cytochrome P450 2E1; assay: as §2; assay type: ADME; remark: listed apart in the source
[11] = target: T1, Cytochrome P450 3A4; assay: (§3) Mechanism based inhibition of human cytochrome P450 3A4 measured by nifedipine oxidation, omeprazole 3-hydroxylation and omeprazole sulfoxydation; assay type: ADME
[12] = target: T7, CYP3A4 (Homo sapiens, UniProt P08684); assay: as §3; assay type: ADME; conditions: human
T7 sequence (P08684 whole entry): as the sequence (P08684 whole entry) above

[13] = target: T1, Cytochrome P450 3A4; assay: Mechanism based inhibition of human cytochrome P450 3A4 measured by testosterone 6-beta hydroxylation; assay type: ADME
[14] = target: T8, Cytochrome P450 2A6 (Homo sapiens, UniProt P11509); assay: Mechanism based inhibition of human cytochrome P450 2A6; assay type: ADME
T8 sequence (P11509 whole entry): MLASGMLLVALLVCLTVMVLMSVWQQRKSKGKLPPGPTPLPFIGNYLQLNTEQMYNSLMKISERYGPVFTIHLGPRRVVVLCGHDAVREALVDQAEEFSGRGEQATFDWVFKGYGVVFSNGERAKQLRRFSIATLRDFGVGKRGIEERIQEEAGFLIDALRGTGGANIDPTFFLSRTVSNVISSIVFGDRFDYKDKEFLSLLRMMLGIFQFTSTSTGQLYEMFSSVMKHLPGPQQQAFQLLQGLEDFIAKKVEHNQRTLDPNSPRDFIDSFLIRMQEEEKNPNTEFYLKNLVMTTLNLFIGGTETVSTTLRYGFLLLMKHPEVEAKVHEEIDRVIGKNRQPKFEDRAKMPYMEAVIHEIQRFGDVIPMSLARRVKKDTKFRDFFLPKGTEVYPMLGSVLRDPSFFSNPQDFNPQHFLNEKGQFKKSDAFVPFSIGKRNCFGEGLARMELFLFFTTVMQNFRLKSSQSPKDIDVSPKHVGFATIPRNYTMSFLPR

[15] = target: T1, Cytochrome P450 3A4; assay: (§4) Mechanism based inhibition of human cytochrome P450 3A4; assay type: ADME
[16] = target: T7, CYP3A4; assay: as §4; assay type: ADME; conditions: human
[17] = target: Cytochrome P450 3A5 (Homo sapiens, UniProt P20815); assay: Mechanism based inhibition of human cytochrome P450 3A5 measured by testosterone hydroxylation; assay type: ADME
Sequence of Cytochrome P450 3A5 (P20815 whole entry): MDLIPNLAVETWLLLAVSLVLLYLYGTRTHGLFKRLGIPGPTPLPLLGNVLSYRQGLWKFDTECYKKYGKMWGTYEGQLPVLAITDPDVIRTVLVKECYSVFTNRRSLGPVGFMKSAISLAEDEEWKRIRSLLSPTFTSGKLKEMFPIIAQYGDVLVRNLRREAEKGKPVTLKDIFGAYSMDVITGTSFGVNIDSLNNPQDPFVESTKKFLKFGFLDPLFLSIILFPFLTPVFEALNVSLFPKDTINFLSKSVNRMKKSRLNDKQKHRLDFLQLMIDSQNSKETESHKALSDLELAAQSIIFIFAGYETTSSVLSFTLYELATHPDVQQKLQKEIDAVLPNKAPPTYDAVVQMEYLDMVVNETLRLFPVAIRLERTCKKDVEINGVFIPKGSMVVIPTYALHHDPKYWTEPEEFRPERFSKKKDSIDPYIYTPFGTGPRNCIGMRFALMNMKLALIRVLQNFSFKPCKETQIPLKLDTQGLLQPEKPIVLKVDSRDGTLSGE

Sequence of Cytochrome P450 2A13 (Q16696 whole entry): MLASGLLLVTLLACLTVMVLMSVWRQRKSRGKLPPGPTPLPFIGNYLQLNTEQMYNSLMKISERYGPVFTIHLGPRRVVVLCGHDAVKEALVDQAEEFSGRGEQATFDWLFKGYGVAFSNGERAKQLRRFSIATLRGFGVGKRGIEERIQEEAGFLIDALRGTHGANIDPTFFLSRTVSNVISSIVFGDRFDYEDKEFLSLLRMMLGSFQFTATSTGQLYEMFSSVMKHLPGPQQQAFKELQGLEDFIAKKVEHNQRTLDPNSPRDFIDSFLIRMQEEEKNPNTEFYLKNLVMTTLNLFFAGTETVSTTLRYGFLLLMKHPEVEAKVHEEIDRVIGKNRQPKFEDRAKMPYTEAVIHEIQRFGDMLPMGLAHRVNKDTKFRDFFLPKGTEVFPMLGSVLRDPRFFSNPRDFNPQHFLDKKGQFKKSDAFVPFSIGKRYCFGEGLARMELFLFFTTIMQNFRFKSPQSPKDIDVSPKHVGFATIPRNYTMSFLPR

Compound: COc1c2occc2cc2ccc(=O)oc12 [METHOXSALEN]
mechanism based inhibition [1]: Cytochrome P450 mechanistic inhibitor: PMID 15579482

Compound: CN(C)c1ccc([C@H]2C[C@]3(C)[C@@H](CC[C@]3(O)CCCO)[C@@H]3CCC4=CC(=O)CCC4=C32)cc1 [ONAPRISTONE]
mechanism based inhibition [2]: Cytochrome P450 mechanistic inhibitor: PMID 9697076

Compound: CN1CCN(C(=O)N[C@@H](Cc2ccccc2)C(=O)N[C@H](/C=C/S(=O)(=O)c2ccccc2)CCc2ccccc2)CC1 [K-777]
mechanism based inhibition [3]: Cytochrome P450 mechanistic inhibitor: PMID 11038163

Compound: O=C(NCCc1ccc(Br)cc1)C(F)Cl (centres undefined)
mechanism based inhibition [4]: Cytochrome P450 mechanistic inhibitor: PMID 1971568

kinact [5]: 0.0148 s⁻¹
Compound: Cc1nc2c([nH]1)c(=O)n(C)c(=O)n2CC1CCCCC1

Ki [6]: 75 µM | kinact [7]: 0.00383 s⁻¹ | kinact [8]: 0.00333 s⁻¹
Compound: C#CC(C)(C)C

Compound: CCN(CC)C(=S)SSC(=S)N(CC)CC
mechanism based inhibition [9]: Cytochrome P450 mechanistic inhibitor: PMID 1664256 | mechanism based inhibition ([9]; human): Cytochrome P450 mechanistic inhibitor: PMID 10805064 | mechanism based inhibition [10]: Cytochrome P450 mechanistic inhibitor: PMID 9695717

Ki [11]: 0.31 µM | kinact [12]: 0.000833 s⁻¹
Compound: C=C(C)C(CC/C(C)=C/COc1c2ccoc2cc2oc(=O)ccc12)OC(C)(C)C(O)CC/C(C)=C/COc1c2ccoc2cc2oc(=O)ccc12 (centres undefined)
mechanism based inhibition [13]: Cytochrome P450 mechanistic inhibitor: PMID 10859150

Compound: CCN(CC)C(=S)S [DITIOCARB]
mechanism based inhibition [14]: Cytochrome P450 mechanistic inhibitor: PMID 9695717 | mechanism based inhibition [10]: Cytochrome P450 mechanistic inhibitor: PMID 9695717

Ki [15]: 26 µM | kinact [16]: 0.00167 s⁻¹
Compound: CCc1c2c(nc3ccc(O)cc13)-c1cc3c(c(=O)n1C2)COC(=O)[C@]3(O)CC [7-ETHYL-10-HYDROXYCAMPTOTHECIN]

Ki [11]: 5.56 µM | kinact [12]: 0.001 s⁻¹ | Ki [15]: 59 µM | kinact [16]: 0.00267 s⁻¹
Compound: C/C(=C\COc1c2ccoc2cc2oc(=O)ccc12)CCC(O)C(C)(C)O (centres undefined) [DIHYDROXYBERGAMOTTIN]
mechanism based inhibition [13]: Cytochrome P450 mechanistic inhibitor: PMID 10859150

Ki [17]: 0.57 µM
Compound: Cc1c(O)cccc1C(=O)N[C@@H](CSc1ccccc1)[C@H](O)CN1C[C@H]2CCCC[C@H]2C[C@H]1C(=O)NC(C)(C)C
